This assay has as its target T1, ShaI/KChIP (Drosophila melanogaster, UniProt P17971).
T1 construct: expressed in transfected cells; subclone 18-13-20
T1 sequence (P17971 with tags, fused parts or gaps isoform P17971-1): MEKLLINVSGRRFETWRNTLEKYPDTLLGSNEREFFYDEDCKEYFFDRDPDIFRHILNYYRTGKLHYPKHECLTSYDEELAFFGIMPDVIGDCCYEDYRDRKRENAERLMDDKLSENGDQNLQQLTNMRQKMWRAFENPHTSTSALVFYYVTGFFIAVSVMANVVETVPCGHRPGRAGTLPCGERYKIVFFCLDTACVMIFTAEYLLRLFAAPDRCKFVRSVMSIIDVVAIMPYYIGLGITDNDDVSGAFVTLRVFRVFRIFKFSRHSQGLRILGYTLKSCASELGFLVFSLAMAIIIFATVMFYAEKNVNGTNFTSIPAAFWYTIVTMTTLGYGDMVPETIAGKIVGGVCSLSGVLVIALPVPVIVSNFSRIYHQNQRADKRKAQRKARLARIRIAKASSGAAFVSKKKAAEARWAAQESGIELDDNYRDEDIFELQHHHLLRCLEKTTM
Kind of assay: Whole-cell patch clamp on ShaI/KChIP 20 cells. It counts as cell-based. The note with it: 100 uM [final], incubation five minutes. As to the method:
Chinese hamster ovary (CHO) cells transfected with (a) a Drosophila ShaI gene (b) a Drosophila ShaI pore mutant gene and (c) a Drosophila ShaI+KChIP gene, and were used for all measurements. Cells were plated in 35 mm Petri dishes 2-6 hours before the experiment.
Data were acquired and analyzed using pClamp software (version 9.0.1.16). The whole-cell configuration of the patch-clamp technique was used to voltage clamp cells at room temperature (22-25° C.). Pipettes were pulled from borosilicate glass capillaries (#8250, Garner Glass, Claremont, Calif.) using a DMZ Universal Puller (Zeitz, Munich, Germany) and had resistances of 1-2 MOhm when filled with pipette solution and measured in bath solution. The liquid junction potential between bath and pipette solution was always compensated before the formation of a gigaohm seal.
Membrane current was measured under whole-cell clamp, sampled at 2 kHz and filtered at 1 kHz by an Axoclamp 200B (Axon Instruments). […]
To study ShaI currents on CHO cells, cells were held at −70 mV and a family of 500 ms test voltage pulses was applied starting from −70 to +70 mV, or +100 mV, in 10 mV increments. The amplitude, as measured for the current-voltage relationship, was defined as the maximal current at a given membrane potential. […]
FIG. 13: ShaI/KChIP inhibited by arachidonic acid. […] Pre- and post-compound currents were measured under whole-cell clamp. […]

The source of these data is patent US9029080B2, “Screening assay for insecticides” (priority 2008, dated 2015).

`CCCCC/C=C\C/C=C\C/C=C\C/C=C\CCCC(=O)O` [arachidonic acid]: the “inhibition of total ShaI/KChIP current” value is on record as “Complete inhibition”.
